Laboratory results: ChEMBL document CHEMBL3885881, “DrugMatrix”

Species: Rattus norvegicus
Assay: DrugMatrix - Regimen: Daily Repeat
Assay type: toxicity, organism-based, Sprague-Dawley
Parameters: regimen Daily Repeat, gender Male, age 6-8 weeks
Details: in vivo, po, route oral GAVAGE, vehicle 100 % WATER; for ABSOLUTE BASOPHIL / ABSOLUTE EOSINOPHIL / ABSOLUTE LYMPHOCYTE / ABSOLUTE MONOCYTE / ABSOLUTE SEGMENTED NEUTROPHIL / BASOPHIL / EOSINOPHIL / ERYTHROCYTE COUNT / HEMATOCRIT / HEMOGLOBIN / LEUKOCYTE COUNT / LYMPHOCYTE / MEAN CORPUSCULAR HEMOGLOBIN / MEAN CORPUSCULAR HEMOGLOBIN CONCENTRATION / MEAN CORPUSCULAR VOLUME / MONOCYTE / NEUTROPHIL / NUCLEATED RED BLOOD CELLS / PLATELET COUNT: tissue Blood; for ALANINE AMINOTRANSFERASE / ALBUMIN / ALKALINE PHOSPHATASE / ASPARTATE AMINOTRANSFERASE / BLOOD UREA NITROGEN / CARBON DIOXIDE / CHLORIDE / CHOLESTEROL / CREATINE PHOSPHOKINASE / CREATININE / GLUCOSE / LACTATE DEHYDROGENASE / LIPASE / PHOSPHORUS / SODIUM / TOTAL BILIRUBIN / TOTAL PROTEIN / URIC ACID: tissue Plasma
[1] = 0 mg/kg, 72 h, dose level Control, time 3 day
[2] = 0 mg/kg, 120 h, dose level Control, time 5 day
[3] = 200 mg/kg, 72 h, dose level Low, time 3 day

## CC1(C)S[C@@H]2[C@H](NC(=O)[C@H](N)c3ccc(O)cc3)C(=O)N2[C@H]1C(=O)O [AMOXICILLIN]
[1]
  ABSOLUTE BASOPHIL: 0 CELLS/uL
  ABSOLUTE EOSINOPHIL: 25 CELLS/uL
  ABSOLUTE LYMPHOCYTE: 14357 CELLS/uL
  ABSOLUTE MONOCYTE: 456.33 CELLS/uL
  ABSOLUTE SEGMENTED NEUTROPHIL: 1461.67 CELLS/uL
  BASOPHIL: 0%
  EOSINOPHIL: 0.17%
  ERYTHROCYTE COUNT: 5.85 x10E6/uL
  HEMATOCRIT: 37.62%
  HEMOGLOBIN: 13.87 G/DL
  LEUKOCYTE COUNT: 16.3 x10E3/uL
  LYMPHOCYTE: 88%
  MEAN CORPUSCULAR HEMOGLOBIN: 23.68 pg
  MEAN CORPUSCULAR HEMOGLOBIN CONCENTRATION: 36.88 G/DL
  MEAN CORPUSCULAR VOLUME: 64.23 fL
  MONOCYTE: 2.83%
  NEUTROPHIL: 9%
  NUCLEATED RED BLOOD CELLS: 0 /100WBC
  PLATELET COUNT: 1125.33 x10E3/uL
  ALANINE AMINOTRANSFERASE: 49.67 u/L
  ALBUMIN: 4.23 G/DL
  ALKALINE PHOSPHATASE: 400.83 u/L
  ASPARTATE AMINOTRANSFERASE: 89.17 u/L
  BLOOD UREA NITROGEN: 16 mg/dL
  CARBON DIOXIDE: 31.83 mmol/L
  CHLORIDE: 99 MEQ/L
  CHOLESTEROL: 76 mg/dL
  CREATINE PHOSPHOKINASE: 777.67 u/L
  CREATININE: 0.22 mg/dL
  GLUCOSE: 158.33 mg/dL
  LACTATE DEHYDROGENASE: 186.17 u/L
  LIPASE: 9.33 u/L
  PHOSPHORUS: 12.95 mg/dL
  SODIUM: 141.53 MEQ/L
  TOTAL BILIRUBIN: 0.18 mg/dL
  TOTAL PROTEIN: 6.08 G/DL
  URIC ACID: 1.77 mg/dL
[2]
  ABSOLUTE BASOPHIL: 0 CELLS/uL
  ABSOLUTE EOSINOPHIL: 0 CELLS/uL
  ABSOLUTE LYMPHOCYTE: 8994.5 CELLS/uL
  ABSOLUTE MONOCYTE: 122.33 CELLS/uL
  ABSOLUTE SEGMENTED NEUTROPHIL: 666.5 CELLS/uL
  BASOPHIL: 0%
  EOSINOPHIL: 0%
  ERYTHROCYTE COUNT: 5.74 x10E6/uL
  HEMATOCRIT: 35.17%
  HEMOGLOBIN: 13.28 G/DL
  LEUKOCYTE COUNT: 9.78 x10E3/uL
  LYMPHOCYTE: 92.33%
  MEAN CORPUSCULAR HEMOGLOBIN: 23.15 pg
  MEAN CORPUSCULAR HEMOGLOBIN CONCENTRATION: 37.8 G/DL
  MEAN CORPUSCULAR VOLUME: 61.27 fL
  MONOCYTE: 1.33%
  NEUTROPHIL: 6.33%
  NUCLEATED RED BLOOD CELLS: 0 /100WBC
  PLATELET COUNT: 1117 x10E3/uL
  ALANINE AMINOTRANSFERASE: 47.83 u/L
  ALBUMIN: 4.33 G/DL
  ALKALINE PHOSPHATASE: 414.5 u/L
  ASPARTATE AMINOTRANSFERASE: 77.5 u/L
  BLOOD UREA NITROGEN: 17 mg/dL
  CARBON DIOXIDE: 32.33 mmol/L
  CHLORIDE: 99.33 MEQ/L
  CHOLESTEROL: 76.33 mg/dL
  CREATINE PHOSPHOKINASE: 363.67 u/L
  CREATININE: 0.25 mg/dL
  GLUCOSE: 173.5 mg/dL
  LACTATE DEHYDROGENASE: 129.33 u/L
  LIPASE: 9.17 u/L
  PHOSPHORUS: 11.52 mg/dL
  SODIUM: 143.85 MEQ/L
  TOTAL BILIRUBIN: 0.2 mg/dL
  TOTAL PROTEIN: 6.43 G/DL
  URIC ACID: 0.97 mg/dL
[3]
  ABSOLUTE BASOPHIL: 0 CELLS/uL
  ABSOLUTE EOSINOPHIL: 109.67 CELLS/uL
  ABSOLUTE LYMPHOCYTE: 14631 CELLS/uL
  ABSOLUTE MONOCYTE: 211.33 CELLS/uL
  ABSOLUTE SEGMENTED NEUTROPHIL: 914.67 CELLS/uL
  BASOPHIL: 0%
  EOSINOPHIL: 0.67%
  ERYTHROCYTE COUNT: 5.96 x10E6/uL
  HEMATOCRIT: 38.03%
  HEMOGLOBIN: 14 G/DL
  LEUKOCYTE COUNT: 15.87 x10E3/uL
  LYMPHOCYTE: 92.33%
  MEAN CORPUSCULAR HEMOGLOBIN: 23.53 pg
  MEAN CORPUSCULAR HEMOGLOBIN CONCENTRATION: 36.8 G/DL
  MEAN CORPUSCULAR VOLUME: 63.87 fL
  MONOCYTE: 1.33%
  NEUTROPHIL: 5.67%
  NUCLEATED RED BLOOD CELLS: 0 /100WBC
  PLATELET COUNT: 1509.33 x10E3/uL
  ALANINE AMINOTRANSFERASE: 49.33 u/L
  ALBUMIN: 4.4 G/DL
  ALKALINE PHOSPHATASE: 350 u/L
  ASPARTATE AMINOTRANSFERASE: 82.33 u/L
  BLOOD UREA NITROGEN: 15.33 mg/dL
  CARBON DIOXIDE: 31.33 mmol/L
  CHLORIDE: 99.33 MEQ/L
  CHOLESTEROL: 96.33 mg/dL
  CREATINE PHOSPHOKINASE: 449.67 u/L
  CREATININE: 0.21 mg/dL
  GLUCOSE: 146 mg/dL
  LACTATE DEHYDROGENASE: 163.67 u/L
  LIPASE: 10.33 u/L
  PHOSPHORUS: 11.9 mg/dL
  SODIUM: 142.1 MEQ/L
  TOTAL BILIRUBIN: 0.2 mg/dL
  TOTAL PROTEIN: 6.37 G/DL
  URIC ACID: 2.03 mg/dL
